# Key:
# EcR-Usp complexes [1] = target: T1, EcR-Usp complexes (Drosophila melanogaster, UniProt P34021); assay: Competitive displacement of 3H-Ponasterone A binding to extract of yeast co-expressing EcR and Usp; settings: unlabelled ligand, FIG. 4, read-out: IC50 for displacing 3H-Ponasterone binding
# T1 construct: An immunoreactive polypeptide corresponding to the full EcR (100 kDa) was detected; ubiquitin (N, cleaved yes); made in house; host or cells: Saccharomyces cerevisiae strain BJ2168 (plasmids YEpEcR and YEpcUSP); unpurified cytosolic extract
# T1 sequence (P34021 1-878): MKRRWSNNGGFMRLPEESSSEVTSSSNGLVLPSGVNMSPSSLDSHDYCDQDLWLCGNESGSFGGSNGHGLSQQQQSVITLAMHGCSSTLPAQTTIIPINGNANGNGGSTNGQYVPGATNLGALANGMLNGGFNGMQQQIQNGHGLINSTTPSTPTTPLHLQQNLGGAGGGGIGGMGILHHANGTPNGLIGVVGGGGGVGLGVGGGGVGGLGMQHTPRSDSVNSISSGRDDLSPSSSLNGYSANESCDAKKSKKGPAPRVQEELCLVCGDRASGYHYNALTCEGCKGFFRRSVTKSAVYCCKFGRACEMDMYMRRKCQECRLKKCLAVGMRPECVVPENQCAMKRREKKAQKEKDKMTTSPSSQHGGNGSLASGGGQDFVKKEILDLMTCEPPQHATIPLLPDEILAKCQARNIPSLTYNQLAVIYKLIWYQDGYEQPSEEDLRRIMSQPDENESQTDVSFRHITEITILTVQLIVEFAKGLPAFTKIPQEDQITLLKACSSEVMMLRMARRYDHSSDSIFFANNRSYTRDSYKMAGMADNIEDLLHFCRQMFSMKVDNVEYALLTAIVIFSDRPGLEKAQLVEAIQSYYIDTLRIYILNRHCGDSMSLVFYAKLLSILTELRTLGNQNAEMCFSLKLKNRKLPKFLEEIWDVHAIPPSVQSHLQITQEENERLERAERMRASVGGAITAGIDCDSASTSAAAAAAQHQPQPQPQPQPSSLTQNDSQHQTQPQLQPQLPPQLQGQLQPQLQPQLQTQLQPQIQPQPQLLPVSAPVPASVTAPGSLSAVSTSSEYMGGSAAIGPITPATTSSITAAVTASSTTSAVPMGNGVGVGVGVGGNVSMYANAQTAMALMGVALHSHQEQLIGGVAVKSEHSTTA
# T1 sequence (P20153 1-508 partner): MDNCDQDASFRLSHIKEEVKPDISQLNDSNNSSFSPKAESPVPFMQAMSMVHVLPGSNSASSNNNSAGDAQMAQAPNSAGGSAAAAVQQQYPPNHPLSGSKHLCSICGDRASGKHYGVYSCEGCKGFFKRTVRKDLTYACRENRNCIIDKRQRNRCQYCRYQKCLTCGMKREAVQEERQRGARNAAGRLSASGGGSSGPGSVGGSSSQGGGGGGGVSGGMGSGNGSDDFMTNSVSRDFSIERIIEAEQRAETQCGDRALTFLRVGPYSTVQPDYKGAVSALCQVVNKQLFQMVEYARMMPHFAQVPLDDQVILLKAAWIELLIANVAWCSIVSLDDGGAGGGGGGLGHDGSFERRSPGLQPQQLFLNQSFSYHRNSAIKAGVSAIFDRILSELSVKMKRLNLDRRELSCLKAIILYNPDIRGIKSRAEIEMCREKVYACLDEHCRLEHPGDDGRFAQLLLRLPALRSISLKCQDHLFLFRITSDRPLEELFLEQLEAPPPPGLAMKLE
# Protocol: (§1) Overnight cultures of yeast strains expressing EcR, Usp, EcR+Usp, and EcR+RxR were inoculated into 1 liter of selective medium and incubated for 16 h at 30° C. In strains expressing Usp, cupric sulfate was added to a final concentration of 100 μM and the culture incubated an additional 4 h at 30° C. The cells were harvested by centrifugation and washed twice in cold TEDG buffer (10 mM Tris-HCl, pH 8.0, 0.1 mM EDTA, 2 mM dithiothreitol, 10% glycerol). The cell pellet was then resuspended in TEDG buffer containing 0.4M NaCl, and vortexed with glass beads in ten 30-second bursts. The resulting homogenate is centrifuged at 1000×g for 10 min, after which the supernatant is centrifuged at 100,000×g for 30 min. The final supernatant is collected, diluted to 12.5 mg/ml protein with TEDG buffer, and stored in aliquots at −80° C.
# (§2) The following components were added to each reaction mixture:
# (§3) (i) 40 μl yeast extract (12.5 mg/ml protein);
# (ii) 20 μl ^3H-Ponasterone A (New England Nuclear, 195 Ci/mmol; 20 μl contains 100,000 cpm and a final concentration of 2.5 nM in the reaction mixture);
# (iii) 120 μl TEDG buffer containing the following protease inhibitors: PMSF (Sigma Chemical Co.), 0.15 mg/ml; leupeptin (Bachem), 0.04 mg/ml; chymostatin (Bachem), 0.03 mg/ml; and pepstatin (Sigma), 0.01 mg/ml; and
# (iv) 20 μl test sample, 25 μM Muristerone A, or control diluent.
# (§4) The reactions were incubated for 1 h at room temperature or at least 12 h at 4° C. Protein-bound and -free radioactivity were separated by hydroxylapatite chromatography or by filtration, the individual samples suspended in scintillation fluid and the radioactivity determined by scintillation counting.
# Specificity of hormone binding to the yeast extract was measured by testing the ability of four known (unlabelled) EcR ligands to displace 3H-Ponasterone binding.
# The methods described in Example 2 above were used to test a collection of natural products for EcR binding activity (FIG. 7). The products were tested at 1 and 10 μg/ml. Of 92 compounds tested, one (present in well H8) displaced 62% of ^3H-Ponasterone A binding activity at 10 μg/ml.
# A chemical library containing 6592 samples was also screened using the methods described above. Each sample was present at 10 μg/ml. Compounds that displaced at least 75% of the radiolabel were scored as positives. These compounds were then used to generate competitive binding curves as described above.
# [2] = cited from earlier work
# [3] = cited from earlier work; remark: listed apart in the source
# EcR-Usp complexes [4] = target: T1, EcR-Usp complexes; assay: Saturation and Scatchard analysis of 3H-Ponasterone A binding to extract of yeast co-expressing EcR and Usp; settings: extract from yeast strain co-expressing EcR and Usp
# Protocol: as §1, §2, §3
# (ii) 20 μl ^3H-Ponasterone A (New England Nuclear, 195 Ci/mmol; 20 μl contains 100,000 cpm and a final concentration of 2.5 nM in the reaction mixture); […]
# as §4, with “counting. […]” for “counting.”
Compound,IC50 (EcR-Usp complexes [1]),fold less active in bioassays compared with 20-hydroxyecdysone [2],fold less active in binding assays compared with 20-hydroxyecdysone [3],Kd (EcR-Usp complexes [4])
20-hydroxyecdysone,500 nM,–,–,–
CC(C)(C)N(NC(=O)c1ccccc1)C(=O)c1ccccc1 [RH5849],12000 nM,at least 100 fold,at least 30 fold,–
CC(C)CC[C@@H](O)[C@](C)(O)[C@H]1CC[C@@]2(O)C3=CC(=O)[C@]4(O)C[C@@H](O)[C@@H](O)C[C@]4(C)[C@H]3[C@H](O)C[C@]12C [muristerone A],15 nM,–,–,–
CC(C)CC[C@@H](O)[C@](C)(O)[C@H]1CC[C@@]2(O)C3=CC(=O)[C@@H]4C[C@@H](O)[C@@H](O)C[C@]4(C)[C@H]3CC[C@]12C [ponasterone A],2 nM,–,–,–
^3H-Ponasterone A,–,–,–,1.8 nM

# Reference: US20020164637A1, “SCREEN FOR ECDYSONE RECEPTOR LIGANDS” (priority 1996, published 2002)
